The values below come from patent publication US4822811A, “Carbazole lipoxygenase inhibiting compounds, compositions and use” (Abbott Laboratories, priority 1988, dated 1989).

Molecules are shown by their SMILES.

This test deals with T1, 5-lipoxygenase (Rattus norvegicus, UniProt P12527).
T1 construct: 20,000xg supernatant from 6×10^4 homogenized RBL-1 cells; endogenous in cells; host or cells: RBL-1 cells (20,000xg supernatant of homogenate)
T1 sequence (P12527 1-673): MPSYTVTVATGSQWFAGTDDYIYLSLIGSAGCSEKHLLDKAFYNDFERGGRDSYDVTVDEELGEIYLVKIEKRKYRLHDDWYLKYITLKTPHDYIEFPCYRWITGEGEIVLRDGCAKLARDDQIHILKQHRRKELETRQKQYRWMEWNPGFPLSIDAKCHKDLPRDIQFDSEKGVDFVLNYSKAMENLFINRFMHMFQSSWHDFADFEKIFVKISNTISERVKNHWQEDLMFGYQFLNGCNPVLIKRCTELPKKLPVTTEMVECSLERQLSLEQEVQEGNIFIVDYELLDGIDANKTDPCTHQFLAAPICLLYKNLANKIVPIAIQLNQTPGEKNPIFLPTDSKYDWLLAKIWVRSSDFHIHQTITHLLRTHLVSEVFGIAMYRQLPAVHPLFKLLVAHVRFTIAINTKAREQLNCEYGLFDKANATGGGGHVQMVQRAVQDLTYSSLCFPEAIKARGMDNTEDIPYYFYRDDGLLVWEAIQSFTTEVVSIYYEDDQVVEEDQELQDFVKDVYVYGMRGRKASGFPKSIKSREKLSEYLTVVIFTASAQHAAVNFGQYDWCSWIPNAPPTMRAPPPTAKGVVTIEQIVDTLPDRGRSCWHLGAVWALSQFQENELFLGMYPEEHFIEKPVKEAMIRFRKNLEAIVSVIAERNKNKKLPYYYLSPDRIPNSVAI
Kind of test: Lipoxygenase IC50 Determination (in vitro 5-lipoxygenase inhibition, 20,000xg supernatant from homogenized RBL-1 cells). The test is classed as biochemical. Conditions: radiolabelled arachidonic acid, 2% DMSO, triplicate incubations, read-out: In vitro 5-lipoxygenase inhibitory potency IC50. On the procedure:
Lipoxygenase IC50 Determination
Assays to determine 5-lipoxygenase activity were performed in […] incubations containing the 20,000xg supernatant from 6×10^4 homogenized RBL-1 cells, 2% DMSO vehicle and various concentrations of the test compound. Reactions were initiated by addition of radiolabelled arachidonic acid and terminated by acidification and ether extraction. Reaction products were separated from nonconverted substrate by thin layer chromatography and measured by liquid scintillation spectroscopy. All treatments were evaluated in triplicate incubations. Inhibition of 5-lipoxygenase activity was computed by comparison of the quantity of products formed in the treatment incubations to the mean product formation in vehicle control groups (n=8). IC50 values and 95% confidence limits were computed by linear regression analysis of percentage inhibition versus log inhibitor concentration plots. The results of the assay indicate that the compounds are inhibitors of 5-lipoxygenase.

As a reminder, the IC50 is the concentration at which inhibition is half-maximal. Regarding `CC(=O)N(O)C(C)c1ccc2oc3ccccc3c2c1` (stereo not drawn) [Example 1], the IC50 stood at 290 nM.

For `CCn1c2ccccc2c2cc(CN(O)C(=O)NC)ccc21` [Example 4, N-hydroxy-N-(9-ethylcarbaz-3-ylmethyl) N-methyl urea], the IC50 worked out at 390 nM.

Consider `CCn1c2ccccc2c2cc(C(C)N(O)C(N)=O)ccc21` (stereo not drawn) [Example 5, N-hydroxy-N-[1-(9-ethylcarbaz-3-yl)ethyl] urea], for which the IC50 turned out to be 380 nM.
